Measured values as given in PubChem BioAssay AID1963842 (Molecular Pharmacology Branch, DTP, NCI, 2024).

System: 677734-321-R-J1-PDC complex spheroid viability
Assay: Anticancer human tumor 677734-321-R-J1-PDC patient-derived soft tissue sarcoma cell line growth inhibition [POLQ]
Conditions: for IC50: curve of first compound; for viability, T/C: stronger effect = lower value
Outline: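 Patient-derived tumour cells were co-cultured with HUVEC and mesenchymal stem cells as multicellular spheroids at 37 °C. They were treated with POLQ inhibitors (novobiocin, ART-558, RP6685) alone or combined with other agents. Top concentrations were at or near clinical Cmax (otherwise 10 microM; SN-38 at 1 microM), decreasing in half-log steps.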

[1] = second compound 0.0316 µM, first compound 0.0316 µM
[2] = second compound 0.0316 µM, first compound 0.1 µM
[3] = second compound 0.0316 µM, first compound 0.316 µM
[4] = second compound 0.0316 µM, first compound 1 µM
[5] = second compound 0.0316 µM, first compound 3.16 µM
[6] = second compound 0.0316 µM, first compound 10 µM
[7] = second compound 0.1 µM, first compound 0.0316 µM
[8] = second compound 0.1 µM, first compound 0.1 µM
[9] = second compound 0.1 µM, first compound 0.316 µM
[10] = second compound 0.1 µM, first compound 1 µM
[11] = second compound 0.1 µM, first compound 3.16 µM
[12] = second compound 0.1 µM, first compound 10 µM
[13] = second compound 0.316 µM, first compound 0.0316 µM
[14] = second compound 0.316 µM, first compound 0.1 µM
[15] = second compound 0.316 µM, first compound 0.316 µM
[16] = second compound 0.316 µM, first compound 1 µM
[17] = second compound 0.316 µM, first compound 3.16 µM
[18] = second compound 0.316 µM, first compound 10 µM
[19] = second compound 1 µM, first compound 0.0316 µM
[20] = second compound 1 µM, first compound 0.1 µM
[21] = second compound 1 µM, first compound 0.316 µM
[22] = second compound 1 µM, first compound 1 µM
[23] = second compound 1 µM, first compound 3.16 µM
[24] = second compound 1 µM, first compound 10 µM
[25] = second compound 3.16 µM, first compound 0.0316 µM
[26] = second compound 3.16 µM, first compound 0.1 µM
[27] = second compound 3.16 µM, first compound 0.316 µM
[28] = second compound 3.16 µM, first compound 1 µM
[29] = second compound 3.16 µM, first compound 3.16 µM
[30] = second compound 3.16 µM, first compound 10 µM
[31] = second compound 10 µM, first compound 0.0316 µM
[32] = second compound 10 µM, first compound 0.1 µM
[33] = second compound 10 µM, first compound 0.316 µM
[34] = second compound 10 µM, first compound 1 µM
[35] = second compound 10 µM, first compound 3.16 µM
[36] = second compound 10 µM, first compound 10 µM
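Note: spheroids exposed to compounds for one week.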
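Throughout, for viability, T/C: 100% = vehicle DMSO treated spheroids.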

Compound: C#Cc1c(F)ccc2cc(O)cc(-c3ncc4c(N5CC6CCC(C5)N6)nc(OCC56CCCN5CC(F)C6)nc4c3F)c12 (stereo unspecified) + COC1C(OC(N)=O)C(O)C(Oc2ccc3c(O)c(NC(=O)c4ccc(O)c(CC=C(C)C)c4)c(=O)oc3c2C)OC1(C)C
- IC50 (second compound 0.0316 µM): > 10 µM
- IC50 (second compound 0.1 µM): > 10 µM
- IC50 (second compound 0.316 µM): > 10 µM
- IC50 (second compound 1 µM): > 10 µM
- IC50 (second compound 3.16 µM): > 10 µM
- IC50 (second compound 10 µM): > 10 µM
- viability, T/C [1]: 108%
- viability, T/C [2]: 92.2%
- viability, T/C [3]: 104%
- viability, T/C [4]: 104%
- viability, T/C [5]: 111%
- viability, T/C [6]: 98%
- viability, T/C [7]: 100%
- viability, T/C [8]: 104%
- viability, T/C [9]: 95.1%
- viability, T/C [10]: 99.7%
- viability, T/C [11]: 104%
- viability, T/C [12]: 98.7%
- viability, T/C [13]: 108%
- viability, T/C [14]: 98.8%
- viability, T/C [15]: 102%
- viability, T/C [16]: 107%
- viability, T/C [17]: 107%
- viability, T/C [18]: 102%
- viability, T/C [19]: 104%
- viability, T/C [20]: 97.5%
- viability, T/C [21]: 111%
- viability, T/C [22]: 109%
- viability, T/C [23]: 103%
- viability, T/C [24]: 103%
- viability, T/C [25]: 103%
- viability, T/C [26]: 95.5%
- viability, T/C [27]: 101%
- viability, T/C [28]: 105%
- viability, T/C [29]: 103%
- viability, T/C [30]: 102%
- viability, T/C [31]: 112%
- viability, T/C [32]: 102%
- viability, T/C [33]: 103%
- viability, T/C [34]: 100%
- viability, T/C [35]: 98.7%
- viability, T/C [36]: 111%

Compound: CC[C@@]1(O)C(=O)OCc2c1cc1n(c2=O)Cc2cc3c(CN(C)C)c(O)ccc3nc2-1 + COC1C(OC(N)=O)C(O)C(Oc2ccc3c(O)c(NC(=O)c4ccc(O)c(CC=C(C)C)c4)c(=O)oc3c2C)OC1(C)C
- IC50 (second compound 0.0316 µM): 0.0257 µM
- IC50 (second compound 0.1 µM): 0.0246 µM
- IC50 (second compound 0.316 µM): 0.0264 µM
- IC50 (second compound 1 µM): 0.0236 µM
- IC50 (second compound 3.16 µM): 0.0252 µM
- IC50 (second compound 10 µM): 0.0288 µM
- viability, T/C (second compound 0.0316 µM, first compound 0.000316 µM): 104%
- viability, T/C (second compound 0.0316 µM, first compound 0.001 µM): 112%
- viability, T/C (second compound 0.0316 µM, first compound 0.00316 µM): 105%
- viability, T/C (second compound 0.0316 µM, first compound 0.01 µM): 105%
- viability, T/C [1]: 37.1%
- viability, T/C [2]: 16.8%
- viability, T/C (second compound 0.1 µM, first compound 0.000316 µM): 109%
- viability, T/C (second compound 0.1 µM, first compound 0.001 µM): 108%
- viability, T/C (second compound 0.1 µM, first compound 0.00316 µM): 109%
- viability, T/C (second compound 0.1 µM, first compound 0.01 µM): 100%
- viability, T/C [7]: 33.8%
- viability, T/C [8]: 18.8%
- viability, T/C (second compound 0.316 µM, first compound 0.000316 µM): 105%
- viability, T/C (second compound 0.316 µM, first compound 0.001 µM): 117%
- viability, T/C (second compound 0.316 µM, first compound 0.00316 µM): 94.2%
- viability, T/C (second compound 0.316 µM, first compound 0.01 µM): 103%
- viability, T/C [13]: 39.3%
- viability, T/C [14]: 16.3%
- viability, T/C (second compound 1 µM, first compound 0.000316 µM): 113%
- viability, T/C (second compound 1 µM, first compound 0.001 µM): 109%
- viability, T/C (second compound 1 µM, first compound 0.00316 µM): 106%
- viability, T/C (second compound 1 µM, first compound 0.01 µM): 106%
- viability, T/C [19]: 29.3%
- viability, T/C [20]: 15.4%
- viability, T/C (second compound 3.16 µM, first compound 0.000316 µM): 120%
- viability, T/C (second compound 3.16 µM, first compound 0.001 µM): 108%
- viability, T/C (second compound 3.16 µM, first compound 0.00316 µM): 110%
- viability, T/C (second compound 3.16 µM, first compound 0.01 µM): 98.2%
- viability, T/C [25]: 34.5%
- viability, T/C [26]: 16%
- viability, T/C (second compound 10 µM, first compound 0.000316 µM): 109%
- viability, T/C (second compound 10 µM, first compound 0.001 µM): 106%
- viability, T/C (second compound 10 µM, first compound 0.00316 µM): 106%
- viability, T/C (second compound 10 µM, first compound 0.01 µM): 98.9%
- viability, T/C [31]: 45.6%
- viability, T/C [32]: 18.7%

Compound: COc1ccc([C@@H](O)c2cc(-c3ncnc4cc(N5CCOCC5)ccc34)c(F)cc2Cl)nn1 + Nc1ccc(C#CCN(C(=O)Cc2ncc(C(F)(F)F)cc2C(F)(F)F)c2ccc(F)cc2)nn1
- IC50 (second compound 0.0316 µM): 7.37 µM
- IC50 (second compound 0.1 µM): 8.81 µM
- IC50 (second compound 0.316 µM): 9.17 µM
- IC50 (second compound 1 µM): 7.89 µM
- IC50 (second compound 3.16 µM): 6.66 µM
- IC50 (second compound 10 µM): > 10 µM
- viability, T/C [1]: 89.5%
- viability, T/C [2]: 96.2%
- viability, T/C [3]: 76.8%
- viability, T/C [4]: 88.4%
- viability, T/C [5]: 72.5%
- viability, T/C [6]: 41.7%
- viability, T/C [7]: 90.2%
- viability, T/C [8]: 106%
- viability, T/C [9]: 96.2%
- viability, T/C [10]: 90.8%
- viability, T/C [11]: 67.4%
- viability, T/C [12]: 47.8%
- viability, T/C [13]: 105%
- viability, T/C [14]: 93.1%
- viability, T/C [15]: 80.9%
- viability, T/C [16]: 95.4%
- viability, T/C [17]: 71.5%
- viability, T/C [18]: 47.6%
- viability, T/C [19]: 108%
- viability, T/C [20]: 93.9%
- viability, T/C [21]: 94%
- viability, T/C [22]: 90.4%
- viability, T/C [23]: 73.8%
- viability, T/C [24]: 43.2%
- viability, T/C [25]: 103%
- viability, T/C [26]: 92.6%
- viability, T/C [27]: 82.8%
- viability, T/C [28]: 75.5%
- viability, T/C [29]: 61.1%
- viability, T/C [30]: 43.4%
- viability, T/C [31]: 102%
- viability, T/C [32]: 99.7%
- viability, T/C [33]: 77.7%
- viability, T/C [34]: 73.7%
- viability, T/C [35]: 72.9%
- viability, T/C [36]: 45.8%
